How the values were obtained:
[1] = test system: kultivierte Zellen aus der Nasenschleimhaut; test: Proliferation of cultured nasal mucosa (epithelial) cells; assay type: cell-based, Mensch; conditions: treatment with 1,8-Cineol (Figur 2B)
From the text: Material und Methoden: Die Anmelderin hat Gewebeproben aus Nasenpolypen und unteren Nasenmuscheln von Patienten mit CRSwNP (chronischer Rhinosinusitis mit Nasenpolypen) und aus unteren Nasenmuscheln von Probanden ohne chronische Sinusitis (gesunde Schleimhaut) auf Basis von immunohistochemischen Methoden und Immunoblot-Verfahren untersucht. Die zelluläre Proliferation und Migration wurden unter Einsatz des xCELLigence Real Time Cell Analyzer untersucht.
Die Zellproliferation wurde mittels eines quantitativen kolorimetrischen 3-(4,5-Dimethylthiazol 2-yl)-2,5-diphenyltetrazoliumbromid-basierten (MTT) Zelltests bestimmt. Dieser Test bestimmt die Anzahl an lebensfähigen Zellen auf Basis der mitochondrialen Umwandlung von MTT.
Die Proliferation wurde mittels eines MTT-Tests von Sigma-Aldrich ("In Vitro Toxicology Assay Kit") entsprechend den Instruktionen des Herstellers ermittelt.
Im Vergleich zur gesunden Nasenschleimhaut weisen Nasenpolypen eine andere Morphologie auf, was anhand von immunohistochemischen Färbungen mit Hämatoxylin-Eosin (HE) an gefrorenen Gewebeschnitten gezeigt werden konnte (Figur 1). Mit dieser Färbemethode werden basophile Strukturen mit Blau-Lila und eosinophile Strukturen mit hellem Pink angefärbt, wohingegen hydrophobe Strukturen, wie die Membranen des Golgi-Apparats, ungefärbt bzw. klar bleiben. […]

GSK-3-alpha/beta = test: Western blot of phospho-GSK-3 (Ser-9/-21) in nasal polyp samples; assay type: cell-based, Mensch; conditions: 100 µM, 24 h (Figur 4A)
Protocol: Lysate von Geweben wurden durch Erhitzen über einen Zeitraum von 5 Minuten in einfachem SDS-Probenpuffer (Carl Roth GmbH, Karlsruhe, Deutschland) denaturiert. Die Proteinkonzentrationen wurden mittels des Bradford-Tests bestimmt und jeweils 30 µg Gesamtprotein wurden zur SDS-Polyacrylamid-Gel Elektrophorese eingesetzt (Mini-Protean TGX®, Any kD, BioRad, Hercules, CA, USA) und anschließend auf Nitrozellulosemembranen übertragen. Die Übertragung der Proteine wurde mittels Ponceau-Färbung kontrolliert. […]
Um die Beladungsmenge jeder Spur zu bestimmen, wurden die Nitrozellulosemembranen über Nacht bei 4 °C mit einem primären Antikörper der GAPDH (Cell Signaling Technology Inc., Massachusetts, Katalognummer: 14C10) in einer Verdünnung von 1 : 1.000 inkubiert. […] Die Pixeldichten wurden quantifiziert und mittels Fusion FX7® unter Einsatz von Bio-1D Software® dokumentiert. […]

Fibroblastenzelllinie = test: MTT assay, vitality and proliferation of a fibroblast cell line; assay type: cell-based; conditions: 1 mM bis 10 mM, 250 Stunden
Protocol: Es wurden weiterführende Untersuchungen durchgeführt zur Analyse des Einflusses von Cineol auf die Vitalität und Proliferation verschiedener permanenter Zelllinien. Hierzu wurden einerseits die zwei HNSCC-Zelllinien und des Weiteren eine Fibroblastenzelllinie verwendet. Diese wurden über einen Zeitraum von 250 Stunden mit verschiedenen Cineol-Konzentrationen kultiviert (1 mM bis 10 mM) und die Vitalität der Zellen wurde jeweils mittels eines MTT-Assays untersucht.

[2] = test system: Transkriptionsfaktors NF-kB; test: NF-kB transcription factor activity in polyp material; assay type: cell-based, Mensch; conditions: in Polyposis nasi et sinuum; TNF-alpha as positive control
From the text: Da auch für Polyposis nasi et sinuum postuliert wird, dass Entzündungsparameter einen entscheidenden Einfluss auf die Progression dieser Erkrankung haben, untersuchte die Anmelderin den Einfluss von Cineol auf die Aktivität des Transkriptionsfaktors Nuclear Factor kappa B (NF-kB) und auf die Aktivität eines breiten Spektrums verschiedener Phosphokinasen, um so die molekularen Angriffspunkte von Cineol in verschiedenen Biosynthesewegen der Zelle hinsichtlich des Polyposis nasi et sinuum-"Mikromilieus" zu identifizieren.
Bei den Messergebnissen wurde TNF-alpha (tumor necrosis factor-alpha) als etablierter Stimulus der NF-kB Aktivität und somit als interne Positivkontrolle verwendet.

CC12CCC(CC1)C(C)(C)O2 [1,8-Cineol, 1,3,3-Trimethyl-2-oxabicyclo[2.2.2]octan]
Proliferation kultivierter Zellen aus der Nasenschleimhaut [1]: nicht beeinflusst | Phosphorylierung von GSK-3-alpha/beta an Serin-9/-21 (GSK-3-alpha/beta): verringerten Phosphorylierung | Progression und Vitalität von Fibroblasten (Fibroblastenzelllinie): inhibierender Einfluss | Aktivität des Transkriptionsfaktors NF-kB [2]: keinen inhibierenden Einfluss hierauf hat, sondern vielmehr leicht aktivierend

— patent publication EP3325012B1, “CINEOLE-CONTAINING COMPOSITION FOR TREATING NOSE POLYPS” (Maria Clementine Martin Klosterfrau Vertriebsgesellschaft …, priority 2015, dated 2017)
